Patent US12071477B2, “Anti-folate receptor alpha antibody conjugated with hemiasterlins” (SUTRO BIOPHARMA, INC., priority 2017, dated 2024)
Substitutions are numbered along the chain they refer to. Square brackets hold non-standard residues; d marks the D form. Peptide text beside a SMILES is read from it. * marks the point of attachment. Dolaproine = CO[C@@H]([C@@H]1CCCN1)[C@@H](C)C(=O)O; Dil = CC[C@H](C)[C@H](NC)[C@@H](CC(=O)O)OC; X1 = C[C@@H](N*)[C@@H](O)c1ccccc1; NMeV = CN[C@H](C(=O)O)C(C)C

Assays:
[1] = test system: cell lines tested (Igrov1, A549 and others); assay: In vitro cytotoxic activity of free drugs, various cell lines; type: cell-based; conditions: in vitro cytotoxicity studies
[2] = Pharmacokinetic profile of free drugs in Sprague-Dawley rats; type: in vivo, rat
Method: To assess the pharmacokinetic profile of free drug (I), female Sprague-Dawley rats (mean body weight 250 g) were given either a 0.4 mg/kg or 1 mg/kg dose by IV bolus administration (N═three animal per dose level) via an indwelling jugular vein catheter. Blood samples were collected at […], 1, 2, 8, 24, 32, 48, and 72 hour post-dose. Levels of free drug (I) and (II) were measured by LC-MS/MS and non-compartmental pharmacokinetic analysis was conducted using Phoenix WinNonlin Version 6.4 (Pharsight Corporation). The PK of free drug (I) could not be estimated due to the fact that concentrations of (I) increased from 2 to 8 hours and were undetectable thereafter.

[3] = Body weight change in rats given free drugs; type: in vivo, rat; conditions: free drug (I): two doses (0.4, 1 mg/kg); free drug (II): 0.4 mg/kg
[4] = test system: MES-SA/MX2 cells (P-glycoprotein); assay: Free drug cell killing on PgP overexpressing MES-SA/MX2 cells with or without PgP inhibitor GF120918; type: cell-based
Source text: (§1) To evaluate if free drug (I) is specifically a substrate of P-glycoprotein (PgP), which is responsible for cisplatin-resistance in some of the ovarian cancer cell lines (Stordal et al. 2012. PLoS One 7(7)), the free drug cell killing activities were investigated on PgP overexpressing MES-SA/MX2 cell line and the parental MES-SA cells. The cell killing activity of free drug (I), free drug (II) and a control free drug (MMAE, designated “III”) on the PgP-overexpressing MES-SA/MX2 cells were reduced by different levels compared to their activity on parental MES-SA cells. The MES-SA/MX2 cells were also treated with PgP inhibitor GF120918 (5 μM) to further investigate if the observed cell killing reduction is contributed by the presence of PgP on the cell surface.

MES-SA cells = assay: Free drug cell killing on parental MES-SA cells; type: cell-based; conditions: Homo sapiens, MEA-SA, No GF120918
Source text: as §1

MC38-hFolRα tumors = assay: MC38-hFolRα tumor model, combination with Avelumab; type: in vivo; conditions: ADC Molecule 4 10 or 15 mg/kg once IV; Avelumab q3dx3
Source text: Results are illustrated in FIGS. 24 and 25.

[5] = test system: FOLR1-positive Igrov1 cells; assay: Secondary antibody cell killing assay (anti-human Fc nanobody-hemiasterlin) on Igrov1 cells; type: cell-based; conditions: humanized 6D1 (2060) antibodies
Method: The internalization of the antibodies was evaluated by a secondary antibody cell killing assay on target positive cells. FOLR1-positive KB cells were obtained from ATCC, and FOLR1-positive Igrov1 cells were obtained from NIH. The cells were maintained in Ham's F-12: high glucose DMEM (50:50) (Corning, Cellgro-Mediatech) supplemented with 10% heat-inactivated fetal bovine serum (Corning, Cellgro-Mediatech, Manassas, Virginia), 1% Penicillin/Streptomycin (Corning, Cellgro-Mediatech, Manassas, Virginia) and 2 mmol/L-glutamax (Thermo Fisher Scientific, Waltham, Massachusetts). Adherent cells were washed twice with calcium and magnesium-free Hanks Balanced Salt Solution (HBSS), harvested with HYQ® TASE™ (Hyclone; Thermo Fisher Scientific, Waltham, Massachusetts) and counted by the Vi-CELL Cell Viability Analyzers (Beckman Coulter, Indianapolis, Indiana). A total of 625 cells were seeded in each well of a 384-well flat bottom white polystyrene plate. Lead antibodies were formulated at 4-fold starting concentration in the cell culture medium and filtered through Multi ScreenHTS 96-Well Filter Plates (Millipore; Billerica, Massachusetts). […] Assay plates were cultured at 37° C. in a CO2 incubator for 120 hrs before assay. For cell viability measurement, 30 μL of Cell Titer-Glog reagent (Promega Corp. Madison, WI) was added into each well, and plates were processed as per product instructions. Relative luminescence was measured on an ENVISION® plate reader (Perkin-Elmer; Waltham, MA). Relative luminescence readings were converted to percent viability using untreated cells as controls. Data was fitted with nonlinear regression analysis, using a log(inhibitor) vs. response-variable slope, 4 parameter fit with GraphPad Prism (GraphPad v 5.0, Software; San Diego, California). Data was expressed as relative cell viability (ATP content) % vs. dose of antibody.

human FOLR1-H1S = molecular target: T1, human FOLR1-H1S (Homo sapiens, UniProt P15328); assay: Biacore affinity and kinetic binding analysis; conditions: humanized 6D1 (2060) antibodies
T1 construct: His (printed 'H1S', read as a misprint of HIS)
Method: Anti-Fc polyclonal antibodies were immobilized onto a CM5 chip (GE Life Sciences) using amine coupling chemistry (from Amine Coupling Kit, GE Life Sciences). The immobilization steps were carried out at a flow rate of 25 μL/min in 1×HBS-EP+buffer (GE Life Sciences; 10× Stock diluted before use). The sensor surfaces were activated for 7 min with a mixture of N-hydroxysuccinimide (NHS, 0.05 M) and 1-ethyl-3-(3-dimethylaminopropyl)-carbodiimide (EDC, 0.2 M). The anti-Fc polyclonal antibodies were injected over all 4 flow cells at a concentration of 25 μg/mL in 10 mM sodium acetate, pH 4.5, for 7 min. Ethanolamine (1 M, pH 8.5) was injected for 7 min to block any remaining activated groups. An average of 12,000 response units (RU) of capture antibody was immobilized on each flow cell.
Off-rate and kinetic binding experiments were performed at 25° C. using 1×HBS-EP+ buffer. Test and control antibodies were injected over the anti-Fc surface at concentrations of 5-10 μg/mL for 12 seconds at a flow rate of 10 μL/min on flow cells 2, 3 and 4, followed by a buffer wash for 30 seconds at the same flow rate. Kinetic characterization of antibody samples was carried out with a single concentration of antigen (for off-rate ranking) or a 1:2 dilution series of antigen (for kinetic characterization) and 1 injection of 0 nM antigen. […] Between each ligand capture and analyte binding cycle, regeneration was carried out using 2 injections of 10 mM glycine pH 2.0 for 30 seconds at 30 μL/min, followed by a 30 second buffer wash step.
The data were fit with the Biacore T200 Evaluation software, using a 1:1 Langmuir binding model. KD (affinity, nM) was determined as a ratio of the kinetic rate constants calculated from the fits of the association and dissociation phases.

[6] = MEA-SA/MX2, GF120918 (5 μM PgP inhibitor)

T1 sequence (P15328 25-234 limits assumed): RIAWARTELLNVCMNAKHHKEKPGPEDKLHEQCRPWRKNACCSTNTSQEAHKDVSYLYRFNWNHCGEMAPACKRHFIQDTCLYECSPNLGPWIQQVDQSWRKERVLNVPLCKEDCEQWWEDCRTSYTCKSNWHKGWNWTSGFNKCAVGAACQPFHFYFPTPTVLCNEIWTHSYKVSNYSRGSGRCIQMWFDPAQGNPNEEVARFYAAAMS

CN[C@H](C(=O)N[C@H](C(=O)N(C)[C@H](/C=C(\C)C(=O)O)C(C)C)C(C)(C)C)C(C)(C)c1cccc(N)c1 [free drug (I)]
cytotoxic activity of released free drugs, comparison [1]: comparable cytotoxic activity
plasma level post dose ([2]; 0.4 or 1 mg/kg IV bolus): undetectable at 24 hours post dose
PK of free drug (I) in rat vs. free drug (II) ([2]; rat): Free drug (I) has faster clearance
effect on body weight [3]: did not have an effect on the body weight
EC50 [4, 6]: 6.4 nM
EC50 ([4]; MEA-SA/MX2, No GF120918): 50 nM
Span ([4]; MEA-SA/MX2, No GF120918): 100%

COc1cc2cc(c1Cl)N(C)C(=O)C[C@H](OC(=O)[C@H](C)N(C)C(=O)CCC(C)(C)S)[C@]1(C)O[C@H]1[C@H](C)[C@@H]1C[C@@](O)(NC(=O)O1)[C@H](OC)/C=C/C=C(/C)C2 [free drug (II)]
cytotoxic activity of released free drugs, comparison [1]: comparable cytotoxic activity
effect on body weight [3]: progressive body weight loss
EC50 [4, 6]: 1.7 nM
EC50 ([4]; MEA-SA/MX2, No GF120918): 28 nM
Span ([4]; MEA-SA/MX2, No GF120918): 100%

CC[C@H](C)[C@@H]([C@@H](CC(=O)N1CCC[C@H]1[C@H](OC)[C@@H](C)C(=O)N[C@H](C)[C@@H](O)c1ccccc1)OC)N(C)C(=O)[C@@H](NC(=O)[C@@H](NC)C(C)C)C(C)C [free drug (III), monomethyl auristatin E] (H-[NMeV]V[Dil][Dolaproine]-X1; N-terminus and C-terminus assumed)
EC50 [4, 6]: 1 nM
EC50 ([4]; MEA-SA/MX2, No GF120918): 111 nM
EC50 (MES-SA cells): 0.75 nM

Avelumab: PD-L1 inhibitor Avelumab (clinical grade) [reference compound]
initial tumor response (MC38-hFolRα tumors): tumor stasis until approximately day 7

B1: SRP2060-A06 (antibody, V domains shown)
VH: EVQLLESGGGLVQPGGSLRLSCAFSGFSLSTFGMGVGWVRQAPGKGLEWVGHIWWDDDKYYYPALKGRFTISKDNSKNTVYLQMNSLRAEDTAVYYCGRNHFPHYYGSSHWYFDVWGQGTTVTVSS
VL: DIQMTQSPSTLSASVGDRVTITCKASQDINSYLSWYQQKPGKAPKLLIYRANRLVDGVPSRFSGSGSGTEFTLTISSLQPDDFATYYCLQYDEFPYTFGGGTKVEIK
modifications: drug conjugate; Synthetic SRP2060-A06, VH; Synthetic H6D1-LC5, VL
Igrov 2° Antibody Cell Killing, Nb-SC239 span [5]: 66%

B2: SRP2060-E10: affinity-matured humanized 6D1 antibody, VH SEQ ID NO 363, VL H6D1-LC4 (antibody, V domains shown)
VH: B1 VH with G51S, Y62H, D114N
VL: EIVMTQSPATLSLSPGERATLSCKASQDINSYLSWYQQKPGQAPRLLIYRANRLVDGIPARFSGSGSGTDYTLTISSLEPEDFAVYYCLQYDEFPYTFGGGTKVEIK
modifications: drug conjugate; Synthetic SRP2060-E10, VH; Synthetic H6D1-LC4, VL
Igrov 2° Antibody Cell Killing, Nb-SC239 span [5]: 68%
Biacore kinetics ka (human FOLR1-H1S): 582000 M⁻¹ s⁻¹
Biacore kinetics kd (human FOLR1-H1S): 0.0012 s⁻¹

B3: SRP2060-E05: affinity-matured humanized 6D1 antibody, VH SEQ ID NO 364, VL H6D1-LC4 (antibody, V domains shown)
VH: B1 VH with G51S, Y62H, I71V, D114N
VL: B2 VL
modifications: drug conjugate; Synthetic SRP2060-E05, VH; Synthetic H6D1-LC4, VL
Igrov 2° Antibody Cell Killing, Nb-SC239 span [5]: 71%
Biacore kinetics ka (human FOLR1-H1S): 541000 M⁻¹ s⁻¹
Biacore kinetics kd (human FOLR1-H1S): 0.00158 s⁻¹

B4: SRP2060-B01 (antibody, V domains shown)
VH: B1 VH with F24L, P43T, G51S, Y62H, Y81H, D114N
VL: B1 VL
modifications: drug conjugate; Synthetic SRP2060-B01, VH; Synthetic H6D1-LC5, VL
Igrov 2° Antibody Cell Killing, Nb-SC239 span [5]: 76%
